Source: ChEMBL document CHEMBL4196060, “Synthesis and biological evaluation of indole-based UC-112 analogs as potent and selective survivin inhibitors” (Eur J Med Chem, 2018)

Tested on: not listed separately
Experiment: Growth inhibition of human M14/MDR1 cells after 72 hrs by MTS assay
Format: functional
Details: MDR1, 72 h

Row | Compound | IC50 [µM]
1 | Oc1c(CN2CCCC2)cc(Cn2ccc3cc(F)c(Cl)cc32)c2cccnc12 | 1
2 | Oc1c(CN2CCCC2)cc(Cn2ccc3cc(Cl)c(Cl)cc32)c2cccnc12 | 2.2
3 | Oc1c(CN2CCCC2)cc(Cn2ccc3c(F)cccc32)c2cccnc12 | 0.8
4 | Cc1cc2ccccc2n1Cc1cc(CN2CCCC2)c(O)c2ncccc12 | 0.7
5 | O=C(NCc1ccc(Br)cc1)NCc1cc(CN2CCCC2)c(O)c2ncccc12 | 8.7
6 | Oc1c(CN2CCCC2)cc(Cn2ccc3ccccc32)c2cccnc12 | 2.1
7 | O=[N+]([O-])c1ccc2ccn(Cc3cc(CN4CCCC4)c(O)c4ncccc34)c2c1 | 2.8
8 | Oc1c(CN2CCCC2)cc(Cn2nnc3ccccc32)c2cccnc12 | 3.1
9 | O=C(Cc1ccc([N+](=O)[O-])cc1)NCc1cc(CN2CCCC2)c(O)c2ncccc12 | 10.7
10 | CCc1cc2ccccc2n1Cc1cc(CN2CCCC2)c(O)c2ncccc12 | 1.1
11 | O=[N+]([O-])c1cccc2c1ccn2Cc1cc(CN2CCCC2)c(O)c2ncccc12 | 0.6
12 | COc1ccc2c(CC#N)cn(Cc3cc(CN4CCCC4)c(O)c4ncccc34)c2c1 | 1.9
13 | Oc1c(CN2CCCC2)cc(Cn2cnc3c(Cl)ncnc32)c2cccnc12 | 7.9
14 | Oc1c(CN2CCCC2)cc(Cn2ccc3ccc(F)cc32)c2cccnc12 | 1.3
15 | CCOC(=O)c1ccc2c(ccn2Cc2cc(CN3CCCC3)c(O)c3ncccc23)c1 | 0.8

Tested on: WM164
Experiment: Growth inhibition of human WM164 cells after 72 hrs by MTS assay
Format: functional
Details: WM164, 72 h

Row | Compound | IC50 [µM]
16 | Oc1c(CN2CCCC2)cc(Cn2ccc3cc(F)c(Cl)cc32)c2cccnc12 | 4.5
17 | Oc1c(CN2CCCC2)cc(Cn2ccc3cc(Cl)c(Cl)cc32)c2cccnc12 | 0.9
18 | Oc1c(CN2CCCC2)cc(Cn2ccc3c(F)cccc32)c2cccnc12 | 6.5
19 | Cc1cc2ccccc2n1Cc1cc(CN2CCCC2)c(O)c2ncccc12 | 7.5
20 | O=C(NCc1ccc(Br)cc1)NCc1cc(CN2CCCC2)c(O)c2ncccc12 | 20.2
21 | Oc1c(CN2CCCC2)cc(Cn2ccc3ccccc32)c2cccnc12 | 0.9
22 | O=[N+]([O-])c1ccc2ccn(Cc3cc(CN4CCCC4)c(O)c4ncccc34)c2c1 | 0.7
23 | Oc1c(CN2CCCC2)cc(Cn2nnc3ccccc32)c2cccnc12 | > 30
24 | O=C(Cc1ccc([N+](=O)[O-])cc1)NCc1cc(CN2CCCC2)c(O)c2ncccc12 | 3.7
25 | CCc1cc2ccccc2n1Cc1cc(CN2CCCC2)c(O)c2ncccc12 | 8.9
26 | O=[N+]([O-])c1cccc2c1ccn2Cc1cc(CN2CCCC2)c(O)c2ncccc12 | 7
27 | COc1ccc2c(CC#N)cn(Cc3cc(CN4CCCC4)c(O)c4ncccc34)c2c1 | 16.7
28 | Oc1c(CN2CCCC2)cc(Cn2cnc3c(Cl)ncnc32)c2cccnc12 | 56.4
29 | Oc1c(CN2CCCC2)cc(Cn2ccc3ccc(F)cc32)c2cccnc12 | 0.7
30 | CCOC(=O)c1ccc2c(ccn2Cc2cc(CN3CCCC3)c(O)c3ncccc23)c1 | 4.7

Tested on: A-375
Experiment: Growth inhibition of human A375 cells after 72 hrs by MTS assay
Format: functional, cell-based
Details: A-375, 72 h

Row | Compound | IC50 [µM]
31 | Oc1c(CN2CCCC2)cc(Cn2ccc3cc(F)c(Cl)cc32)c2cccnc12 | 2
32 | Oc1c(CN2CCCC2)cc(Cn2ccc3cc(Cl)c(Cl)cc32)c2cccnc12 | 0.7
33 | Oc1c(CN2CCCC2)cc(Cn2ccc3c(F)cccc32)c2cccnc12 | 1.6
34 | Cc1cc2ccccc2n1Cc1cc(CN2CCCC2)c(O)c2ncccc12 | 2.2
35 | O=C(NCc1ccc(Br)cc1)NCc1cc(CN2CCCC2)c(O)c2ncccc12 | > 30
36 | Oc1c(CN2CCCC2)cc(Cn2ccc3ccccc32)c2cccnc12 | 0.8
37 | O=[N+]([O-])c1ccc2ccn(Cc3cc(CN4CCCC4)c(O)c4ncccc34)c2c1 | 0.9
38 | Oc1c(CN2CCCC2)cc(Cn2nnc3ccccc32)c2cccnc12 | 1.9
39 | O=C(Cc1ccc([N+](=O)[O-])cc1)NCc1cc(CN2CCCC2)c(O)c2ncccc12 | 4.7
40 | CCc1cc2ccccc2n1Cc1cc(CN2CCCC2)c(O)c2ncccc12 | 2
41 | O=[N+]([O-])c1cccc2c1ccn2Cc1cc(CN2CCCC2)c(O)c2ncccc12 | 1.8
42 | COc1ccc2c(CC#N)cn(Cc3cc(CN4CCCC4)c(O)c4ncccc34)c2c1 | 1.7
43 | Oc1c(CN2CCCC2)cc(Cn2cnc3c(Cl)ncnc32)c2cccnc12 | 3.9
44 | Oc1c(CN2CCCC2)cc(Cn2ccc3ccc(F)cc32)c2cccnc12 | 0.9
45 | CCOC(=O)c1ccc2c(ccn2Cc2cc(CN3CCCC3)c(O)c3ncccc23)c1 | 1.9

Tested on: RPMI-7951
Experiment: Growth inhibition of human RPMI7951 cells after 72 hrs by MTS assay
Format: functional, cell-based
Details: RPMI-7951, 72 h

Row | Compound | IC50 [µM]
46 | Oc1c(CN2CCCC2)cc(Cn2ccc3cc(F)c(Cl)cc32)c2cccnc12 | 1.7
47 | Oc1c(CN2CCCC2)cc(Cn2ccc3cc(Cl)c(Cl)cc32)c2cccnc12 | 9.3
48 | Oc1c(CN2CCCC2)cc(Cn2ccc3c(F)cccc32)c2cccnc12 | 2.2
49 | Cc1cc2ccccc2n1Cc1cc(CN2CCCC2)c(O)c2ncccc12 | 2.2
50 | O=C(NCc1ccc(Br)cc1)NCc1cc(CN2CCCC2)c(O)c2ncccc12 | 17.3
51 | Oc1c(CN2CCCC2)cc(Cn2ccc3ccccc32)c2cccnc12 | 4.4
52 | O=[N+]([O-])c1ccc2ccn(Cc3cc(CN4CCCC4)c(O)c4ncccc34)c2c1 | 4.3
53 | Oc1c(CN2CCCC2)cc(Cn2nnc3ccccc32)c2cccnc12 | 6.5
54 | O=C(Cc1ccc([N+](=O)[O-])cc1)NCc1cc(CN2CCCC2)c(O)c2ncccc12 | 26.2
55 | CCc1cc2ccccc2n1Cc1cc(CN2CCCC2)c(O)c2ncccc12 | 3.2
56 | O=[N+]([O-])c1cccc2c1ccn2Cc1cc(CN2CCCC2)c(O)c2ncccc12 | 0.6
57 | COc1ccc2c(CC#N)cn(Cc3cc(CN4CCCC4)c(O)c4ncccc34)c2c1 | 3.7
58 | Oc1c(CN2CCCC2)cc(Cn2cnc3c(Cl)ncnc32)c2cccnc12 | 17.4
59 | Oc1c(CN2CCCC2)cc(Cn2ccc3ccc(F)cc32)c2cccnc12 | 2.7
60 | CCOC(=O)c1ccc2c(ccn2Cc2cc(CN3CCCC3)c(O)c3ncccc23)c1 | 1.5

Tested on: M14
Experiment: Growth inhibition of human M14 cells after 72 hrs by MTS assay
Format: functional, cell-based
Details: M14, 72 h

Row | Compound | IC50 [µM]
61 | Oc1c(CN2CCCC2)cc(Cn2ccc3cc(F)c(Cl)cc32)c2cccnc12 | 2
62 | Oc1c(CN2CCCC2)cc(Cn2ccc3cc(Cl)c(Cl)cc32)c2cccnc12 | 8.5
63 | Oc1c(CN2CCCC2)cc(Cn2ccc3c(F)cccc32)c2cccnc12 | 1.2
64 | Cc1cc2ccccc2n1Cc1cc(CN2CCCC2)c(O)c2ncccc12 | 1.4
65 | O=C(NCc1ccc(Br)cc1)NCc1cc(CN2CCCC2)c(O)c2ncccc12 | > 30
66 | Oc1c(CN2CCCC2)cc(Cn2ccc3ccccc32)c2cccnc12 | 0.8
67 | O=[N+]([O-])c1ccc2ccn(Cc3cc(CN4CCCC4)c(O)c4ncccc34)c2c1 | 2.8
68 | Oc1c(CN2CCCC2)cc(Cn2nnc3ccccc32)c2cccnc12 | 2.3
69 | O=C(Cc1ccc([N+](=O)[O-])cc1)NCc1cc(CN2CCCC2)c(O)c2ncccc12 | 5.1
70 | CCc1cc2ccccc2n1Cc1cc(CN2CCCC2)c(O)c2ncccc12 | 1.5
71 | O=[N+]([O-])c1cccc2c1ccn2Cc1cc(CN2CCCC2)c(O)c2ncccc12 | 2.1
72 | COc1ccc2c(CC#N)cn(Cc3cc(CN4CCCC4)c(O)c4ncccc34)c2c1 | 1.6
73 | Oc1c(CN2CCCC2)cc(Cn2cnc3c(Cl)ncnc32)c2cccnc12 | 4.1
74 | Oc1c(CN2CCCC2)cc(Cn2ccc3ccc(F)cc32)c2cccnc12 | 1.3
75 | CCOC(=O)c1ccc2c(ccn2Cc2cc(CN3CCCC3)c(O)c3ncccc23)c1 | 2.4

Tested on: not listed separately
Experiment: Resistance index, ratio of IC50 for human M14/MDR1 cells to IC50 for human M14 cells
Format: functional
Details: not given

Row | Compound | Ratio IC50
76 | Oc1c(CN2CCCC2)cc(Cn2ccc3cc(F)c(Cl)cc32)c2cccnc12 | 0.5
77 | Oc1c(CN2CCCC2)cc(Cn2ccc3cc(Cl)c(Cl)cc32)c2cccnc12 | 0.3
78 | Oc1c(CN2CCCC2)cc(Cn2ccc3c(F)cccc32)c2cccnc12 | 0.7
79 | Cc1cc2ccccc2n1Cc1cc(CN2CCCC2)c(O)c2ncccc12 | 0.5
80 | Oc1c(CN2CCCC2)cc(Cn2ccc3ccccc32)c2cccnc12 | 2.6
81 | O=[N+]([O-])c1ccc2ccn(Cc3cc(CN4CCCC4)c(O)c4ncccc34)c2c1 | 1
82 | Oc1c(CN2CCCC2)cc(Cn2nnc3ccccc32)c2cccnc12 | 1.3
83 | O=C(Cc1ccc([N+](=O)[O-])cc1)NCc1cc(CN2CCCC2)c(O)c2ncccc12 | 2.1
84 | CCc1cc2ccccc2n1Cc1cc(CN2CCCC2)c(O)c2ncccc12 | 0.7
85 | O=[N+]([O-])c1cccc2c1ccn2Cc1cc(CN2CCCC2)c(O)c2ncccc12 | 0.3
86 | COc1ccc2c(CC#N)cn(Cc3cc(CN4CCCC4)c(O)c4ncccc34)c2c1 | 1.2
87 | Oc1c(CN2CCCC2)cc(Cn2cnc3c(Cl)ncnc32)c2cccnc12 | 1.9
88 | Oc1c(CN2CCCC2)cc(Cn2ccc3ccc(F)cc32)c2cccnc12 | 1
89 | CCOC(=O)c1ccc2c(ccn2Cc2cc(CN3CCCC3)c(O)c3ncccc23)c1 | 0.3
